Results: US20120316137A1, “Methods and Compositions for Treating Cancer” (priority 2009, published 2012)
Entries after “also recorded” stand apart in the source; their conditions may differ. Like-named read-outs stand apart in the source and are kept apart here.

What was measured:
[1] = target: c-MER (Homo sapiens, UniProt Q12866); assay: Kinase assay (RBC)
[2] = system: Ba/F3 cells expressing native BCR-ABL
[3] = system: MDA-MB-453 breast cancer cells, mutant FGFR4 (Y367C); assay: cells; conditions: Homo sapiens, MDA-MB-453, read-out: Cell growth GI50 (nM)
[4] = human, in vivo
[5] = system: Phospho-Erk1/2 in KatoIII cells; assay: Western immunoblotting; conditions: Homo sapiens, KATO III, read-out: Phospho-Erk1/2 IC50 (nM)
[6] = system: FGFR2 signaling in AN3CA endometrial cells (N549K); assay: Signaling (Western immunoblotting), Table 12; conditions: Homo sapiens, AN3-CA, read-out: Signaling IC50 (nM)
[7] = system: SNU1 cells; assay: Soft agar colony formation assay; assay type: cell-based; conditions: Homo sapiens, SNU1, read-out: Soft Agar IC50 (nM)
Protocol: (§1) The soft agar assay was performed using the CytoSelect 96-Well Cell Transformation Assay (Cell Biolabs, San Diego, Calif.). Briefly, cells were resuspended in 0.08% agar and plated on 0.06% agar in 96-well plates. […] Cells were either stained with iodonitrotetrazoliumchloride (Sigma, St. Louis, Mo.) or solubilized and quantified with CyQuant Dye according to the manufacturer's protocol. “ND” indicated not determined.

[8] = system: SNU16 cells; assay: Soft agar colony formation assay; assay type: cell-based; conditions: Homo sapiens, SNU-16, read-out: Soft Agar IC50 (nM)
Protocol: as §1

[9] = system: Hec1B cells; assay: Soft agar colony formation assay; assay type: cell-based; conditions: Homo sapiens, HEC-1B, read-out: Soft Agar IC50 (nM)
Protocol: as §1

[10] = system: AN3CA cells; assay: Soft agar colony formation assay; assay type: cell-based; conditions: Homo sapiens, AN3-CA, read-out: Soft Agar IC50 (nM)
Protocol: as §1

[11] = system: MFE-296 endometrial cancer cells (FGFR2 N549K); assay: Cell growth assay (72 h); assay type: cell-based; conditions: Homo sapiens
[12] = system: Ba/F3 cells expressing BCR-ABL^T315I; assay: CrkL phosphorylation immunoblot in Ba/F3 cells; conditions: 4 h
[13] = system: Phospho-FRS2a in KatoIII cells; assay: Western immunoblotting; conditions: Homo sapiens, KATO III, read-out: Phospho-FRS2a IC50 (nM)
[14] = system: FGFR4 signaling in MDA-453 breast cells (Y367C); assay: Signaling (Western immunoblotting), Table 12; conditions: MDA-453, read-out: Signaling IC50 (nM)
[15] = system: FGFR2-mutant AN3CA tumor xenograft; assay: AN3CA xenograft, compound 1 and ridaforolimus (Example 9); assay type: in vivo, nude mice
[16] = system: wtFGFR2 RL95 cells; assay: Cell growth assay (72 h); assay type: cell-based
[17] = system: wtFGFR2 SNU1 cells; assay: Cell growth assay (72 h); assay type: cell-based; conditions: Homo sapiens
[18] = system: MV4-11, Kasumi-1, KG1 and EOL1 cells (panel); assay: Cell viability assay, panel summary; conditions: read-out: IC50 for inhibition of viability of all 4 cell lines
[19] = target: ERBB4 (Homo sapiens, UniProt Q15303); assay: Kinase assay (RBC)
Sequence of ERBB4 (Q15303 718-985 limits assumed): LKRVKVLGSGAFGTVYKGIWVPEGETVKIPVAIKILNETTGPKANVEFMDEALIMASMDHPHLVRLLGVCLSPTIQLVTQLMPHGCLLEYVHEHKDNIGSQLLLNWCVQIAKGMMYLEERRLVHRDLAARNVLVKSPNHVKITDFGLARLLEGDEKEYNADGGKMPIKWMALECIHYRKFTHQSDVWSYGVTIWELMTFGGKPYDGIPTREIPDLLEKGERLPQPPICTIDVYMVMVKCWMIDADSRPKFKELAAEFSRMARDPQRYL

[20] = target: JAK2 (Homo sapiens, UniProt O60674); assay: Kinase assay (RBC)
Sequence of JAK2 (O60674 849-1124 limits assumed): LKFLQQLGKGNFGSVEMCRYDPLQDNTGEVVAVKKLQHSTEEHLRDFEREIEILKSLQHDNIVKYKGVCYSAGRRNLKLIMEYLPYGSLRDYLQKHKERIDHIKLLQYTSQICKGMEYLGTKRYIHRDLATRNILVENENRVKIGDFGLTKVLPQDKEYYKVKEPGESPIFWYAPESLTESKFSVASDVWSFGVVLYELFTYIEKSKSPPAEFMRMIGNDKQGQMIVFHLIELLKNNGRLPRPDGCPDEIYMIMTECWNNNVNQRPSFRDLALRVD

[21] = system: MV4-11 xenografts (FLT3-ITD); assay: MV4-11 subcutaneous xenograft efficacy; assay type: in vivo, CB.17 SCID mice
[22] = system: Kasumi-1 cells (c-KIT N822K); assay: Cell viability assay (72 h); assay type: cell-based; conditions: Homo sapiens, Kasumi 1, 72 h, read-out: Cell viability IC50 (nM)
[23] = system: FLT3, KIT, FGFR1 and PDGFRα in leukemic cell lines (panel); conditions: read-out: IC50 for inhibition of phosphorylation of all 4 RTKs; range over the 4 cell lines
[24] = system: RS4;11 cells (wt); assay: Cell viability assay (72 h); conditions: Homo sapiens, RS4-11, 72 h, read-out: Cell viability IC50 (nM)
[25] = system: Ba/F3 cells expressing BCR-ABL^T315I; conditions: for Wells with outgrowth: 480 wells surveyed
[26] = system: Phospho-FRS2a in MFE-296 cells; assay: Western immunoblotting; conditions: Homo sapiens, MFE-296, read-out: Phospho-FRS2a IC50 (nM)
[27] = system: Phospho-FRS2a in RL95 cells; assay: Western immunoblotting; conditions: read-out: Phospho-FRS2a IC50 (nM)
[28] = system: AN3CA endometrial cancer cells with mutant FGFR2 (N549K); assay: cells; conditions: Homo sapiens, AN3-CA, read-out: Cell growth GI50 (nM)
[29] = system: Phospho-FRS2a in Hec1B cells; assay: Western immunoblotting; conditions: Homo sapiens, HEC-1B, read-out: Phospho-FRS2a IC50 (nM)

Sequence of c-MER (Q12866 587-858 limits assumed): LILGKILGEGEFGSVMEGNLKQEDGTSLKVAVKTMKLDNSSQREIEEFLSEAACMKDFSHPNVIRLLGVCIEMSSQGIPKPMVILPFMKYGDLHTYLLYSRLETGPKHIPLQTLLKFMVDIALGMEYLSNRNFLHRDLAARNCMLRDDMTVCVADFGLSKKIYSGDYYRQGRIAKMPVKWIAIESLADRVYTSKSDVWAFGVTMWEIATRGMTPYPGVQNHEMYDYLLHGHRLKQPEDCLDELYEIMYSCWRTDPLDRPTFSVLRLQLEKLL

Cc1ccc(C(=O)Nc2ccc(CN3CCN(C)CC3)c(C(F)(F)F)c2)cc1C#Cc1cnc2cccnn12 [Compound 1, 3-(imidazo[1,2-b]pyridazin-3-ylethynyl)-4-methyl-N-(4-((4-methylpiperazin-1-yl)-methyl)-3-(trifluoromethyl)phenyl)benzamide]
IC50 [1]: 406 nM | frequency of mutated subclones [2]: 33.1% | GI50 [3]: 275 nM | accumulation after repeated dosing [4]: 1.5-3 fold | IC50 [5]: 8 nM | IC50 [6]: 4 nM | IC50 [7]: > 1000 nM | IC50 [8]: 29 nM | IC50 [9]: > 1000 nM | IC50 [10]: 23 nM | GI50 [11]: 72 nM | effect on CrkL phosphorylation [12]: only compound 1 demonstrated activity against the T315I mutant; also recorded: marked reduction in % pCrkL | IC50 [13]: 34 nM | IC50 [14]: 30 nM | TGI (%) ([15]; Compound 1 10 mg/kg alone): 26% | TGI (%) ([15]; Compound 1 30 mg/kg alone): 81% | GI50 [16]: 428 nM | GI50 [17]: 500 nM | IC50 [18]: 0.5 to 17 nM | IC50 [19]: 176 nM | IC50 [20]: 169 nM | TGI ([21]; 1 mg/kg oral once daily, 28 days, day 0 to day 24): 46% | tumor response ([21]; 10 or 25 mg/kg, 31-day follow up): complete and durable tumor regression | IC50 [22]: 8 nM | IC50 [23]: […] | IC50 [24]: > 100 nM | Occurrences (n), by specific compound mutation (with T315I) ([25]; 20 nM, 20 clones sequenced, T315I only): 20 | Frequency among clones (%) ([25]; 20 nM, T315I only): 100.0% | Wells with outgrowth ([25]; 40 nM): 192 | Frequency by residue (%) ([25]; 320 nM, E255): 100.0% | Occurrences (n), by residue ([25]; 320 nM, E255): 1 | Wells with outgrowth ([25]; 640 nM): 0 | IC50 [26]: 2.7 nM | IC50 [27]: > 1000 nM | GI50 [28]: 30 nM | IC50 [29]: > 1000 nM
